From patent US20240150293A1, “SPIROCYCLOHEXANE DERIVATIVES, PHARMACEUTICAL COMPOSITIONS CONTAINING THEM AND THEIR USES AS ANTI-APOPTOTIC INHIBITORS” (LES LABORATOIRES SERVIER, priority 2021, published 2024)
Like-named read-outs stand apart in the source and are kept apart here.

Key:
[1] = target: Cy5-labelled Mcl1 (amino acids 171-321) C286S protein (UniProtKB Q07820) (Homo sapiens (Human), UniProt Q07820, C286S); test: Inhibition of Mcl-1 by the fluorescence quenching assay (Example A, Method B); assay type: binding
Cy5-labelled Mcl1 (amino acids 171-321) C286S protein, sequence (Q07820 171-321 C286S): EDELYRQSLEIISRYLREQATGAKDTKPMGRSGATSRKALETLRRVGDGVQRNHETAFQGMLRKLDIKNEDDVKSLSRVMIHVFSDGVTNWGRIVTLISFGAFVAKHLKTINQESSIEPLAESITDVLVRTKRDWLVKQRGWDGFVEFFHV
Procedure, shortened: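 Cy5-labelled Mcl1 171-321 C286S (1 nM) quenched by TQ5WS-labelled PUMA peptide (10, 20 or 400 nM); displacement raises fluorescence (Ex 620/Em 680 nm). Buffer 10 mM HEPES, 150 mM NaCl, 0.05% Tween 20, pH 7.4, 5% DMSO; 2 h at room temperature, 11-point curves, IC50 converted to Ki (cKi/eKi).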

[2] = tested on: NCI-H929 cell lines; test: In vitro cytotoxicity, CellTiter-Glo (CTG) assay (Example B, Method B); assay type: cell-based; settings: Homo sapiens, NCI-H929, 48 h, NCI-H929 cells, 48 h incubation, read-out: C50
Method: Cellular viability was monitored with the cell viability assay (Cell Titer-Glo®) on NCI-H929 cell lines. The CellTiter-Glo® (CTG) Luminescent Cell Viability Assay (from Promega) is a homogeneous method to determine the number of viable cells in culture based on quantitation of the ATP present, which signals the presence of metabolically active cells.
Concentration response of test compounds are performed with 10 mM stock solutions (DMSO), 11-points curve, in a 384-well compound plate. The assay plate is prepared by stamping 120 nL from compound dilution plate of all different concentrations (e.g. 10 mM to have final 30 μM assay test) into a cell culture microplate, using Echo acoustic liquid handling (Labcyte, Beckman). 40 μl of cell solution is added and cells are incubated with compounds for 48 h at 37° C., 5% CO2. CTG was added to the cells (according to the manufacturer instructions) and luminescence intensity was recorded using the Pherastar plate reader (BMG).
This assay provides in vitro cellular efficacy of compounds of Formula (I) tested, measuring the C50, defined as the concentration needed to reach 50% of the cellular viability.

Row | Structure (SMILES) | Ki [1] [nM] | IC50 [2] [nM] | Ki ([1]; Ki determined from IC50) [nM]
1 | C[C@@H](COc1ccnc2c1[C@H](C)CC[C@H]2O)C[C@H]1Cc2cc3c(cc2[C@]12CC[C@@](Nc1cccc(Cl)c1)(C(=O)O)CC2)OCO3 [Example 959, (1r,4S,6′S)-4-(3-chloroanilino)-6′-[(2R)-3-{[(5R,8R)-8-hydroxy-5-methyl-5,6,7,8-tetrahydroquinolin-4-yl]oxy}-2-methylpropyl]-6′,7′-dihydro-2′H-spiro[cyclohexane-1,5′-indeno[5,6-d][1,3]dioxole]-4-carboxylic acid] | 0.0117 | 28.7 | –
2 | C[C@@H](COc1ccnc2c1[C@H](C)CCC2)C[C@H]1Cc2ccc(OCC(F)(F)F)cc2[C@]12CC[C@@](Nc1cccc(Cl)c1)(C(=O)O)CC2 [Example 792, (1r,2′S,4S)-4-(3-chloroanilino)-2′-[(2R)-2-methyl-3-{[(5R)-5-methyl-5,6,7,8-tetrahydroquinolin-4-yl]oxy}propyl]-6′-(2,2,2-trifluoroethoxy)-2′,3′-dihydrospiro[cyclohexane-1,1′-indene]-4-carboxylic acid] | 0.469 | 143 | –
3 | COc1ccccc1-c1ccc2c(c1)[C@]1(CC[C@@](Nc3cccc(Cl)c3)(C(=O)O)CC1)[C@@H](C[C@@H](C)COc1ccnc3c1[C@H](C)CCC3)C2 [Example 876, (1r,2′S,4S)-4-(3-chloroanilino)-6′-(2-methoxyphenyl)-2′-[(2R)-2-methyl-3-{[(5R)-5-methyl-5,6,7,8-tetrahydroquinolin-4-yl]oxy}propyl]-2′,3′-dihydrospiro[cyclohexane-1,1′-indene]-4-carboxylic acid] | 0.399 | 307 | –
4 | C[C@@H](COc1ccnc2c1[C@H](C)CCC2)C[C@H]1Cc2cc3c(cc2[C@]12CC[C@@](Nc1cccc(Cl)c1)(C(=O)O)CC2)OCC1(CCC1)CO3 [Example 995, (1″r,4″S,8′S)-4″-(3-chloroanilino)-8′-[(2R)-2-methyl-3-{[(5R)-5-methyl-5,6,7,8-tetrahydroquinolin-4-yl]oxy}propyl]-8′,9′-dihydro-2′H,4′H-dispiro[cyclobutane-1,3′-indeno[5,6-b][1,4]dioxepine-7′,1″-cyclohexane]-4″-carboxylic acid] | 0.0885 | 108 | –
5 | COCc1cc2c(cc1F)C[C@H](C[C@@H](C)COc1ccnc3c1[C@H](C)CCC3)[C@]21CC[C@](Nc2cccc(Cl)c2)(C(=O)O)CC1 [Example 921, (1r,2′S,4S)-4-(3-chloroanilino)-5′-fluoro-6′-(methoxymethyl)-2′-[(2R)-2-methyl-3-{[(5R)-5-methyl-5,6,7,8-tetrahydroquinolin-4-yl]oxy}propyl]-2′,3′-dihydrospiro[cyclohexane-1,1′-indene]-4-carboxylic acid] | 0.0108 | 35.9 | –
6 | C[C@@H](COc1ccnc2c1[C@H](C)CCC2)C[C@H]1Cc2cc(F)c(F)cc2[C@]12CC[C@@](Nc1cccc(Cl)c1)(C(=O)O)CC2 [Example 775, (1r,2′S,4S)-4-(3-chloroanilino)-5′,6′-difluoro-2′-[(2R)-2-methyl-3-{[(5R)-5-methyl-5,6,7,8-tetrahydroquinolin-4-yl]oxy}propyl]-2′,3′-dihydrospiro[cyclohexane-1,1′-indene]-4-carboxylic acid] | 0.518 | 84.4 | –
7 | C[C@@H](COc1ccnc2c1[C@H](C)CCC2)CN1Cc2cc3c(cc2[C@]12CC[C@](Nc1cccc(Cl)c1)(C(=O)O)CC2)OCO3 [Example 45, (1r,4R)-4-(3-chloroanilino)-6′-[(2R)-2-methyl-3-{[(5R)-5-methyl-5,6,7,8-tetrahydroquinolin-4-yl]oxy}propyl]-6′,7′-dihydro-2′H-spiro[cyclohexane-1,5′-[1,3]dioxolo[4,5-f]isoindole]-4-carboxylic acid] | – | 24200 | 300
8 | C[C@@H](COc1ccnc2c1[C@H](C)CCC2)C[C@H]1Cc2ccc(CO)cc2[C@]12CC[C@@](Nc1cccc(Cl)c1)(C(=O)O)CC2 [Example 870, (1r,2′S,4S)-4-(3-chloroanilino)-6′-(hydroxymethyl)-2′-[(2R)-2-methyl-3-{[(5R)-5-methyl-5,6,7,8-tetrahydroquinolin-4-yl]oxy}propyl]-2′,3′-dihydrospiro[cyclohexane-1,1′-indene]-4-carboxylic acid] | 0.0509 | 126 | –
9 | C[C@@H](COc1ccnc2c1[C@H](C)CCC2)C[C@H]1Cc2cc3c(cc2[C@]12CC[C@@](Nc1cccc(Cl)c1)(C(=O)O)CC2)OC(C)(C)O3 [Example 848, (1r,4S,6′S)-4-(3-chloroanilino)-2′,2′-dimethyl-6′-[(2R)-2-methyl-3-{[(5R)-5-methyl-5,6,7,8-tetrahydroquinolin-4-yl]oxy}propyl]-6′,7′-dihydro-2′H-spiro[cyclohexane-1,5′-indeno[5,6-d][1,3]dioxole]-4-carboxylic acid] | 0.0343 | 48.6 | –
10 | C[C@@H](COc1ccnc2c1[C@H](C)CCC2)C[C@H]1Cc2ccccc2[C@]12CC[C@@](Nc1cccc(Cl)c1)(C(=O)O)CC2 [Example 653, (1r,2′S,4S)-4-(3-chloroanilino)-2′-[(2R)-2-methyl-3-{[(5R)-5-methyl-5,6,7,8-tetrahydroquinolin-4-yl]oxy}propyl]-2′,3′-dihydrospiro[cyclohexane-1,1′-indene]-4-carboxylic acid] | 0.282 | 113 | –
11 | C[C@@H](COc1ccnc2c1[C@H](C)CCC2)C[C@H]1Cc2cc3c(cc2[C@]12CC[C@@](Nc1cccc(Cl)c1)(C(=O)O)CC2)O[C@@H](C)CO3 [Example 972, (1r,3'S,4S,7′S)-4-(3-chloroanilino)-3′-methyl-7′-[(2R)-2-methyl-3-{[(5R)-5-methyl-5,6,7,8-tetrahydroquinolin-4-yl]oxy}propyl]-2′,3′,7′,8′-tetrahydrospiro[cyclohexane-1,6′-indeno[5,6-b][1,4]dioxine]-4-carboxylic acid] | 0.00893 | 31 | –
12 | C[C@@H](COc1ccnc2c1[C@H](C)CCC2)C[C@H]1Cc2ccc(COC3CCCO3)cc2[C@]12CC[C@@](Nc1cccc(Cl)c1)(C(=O)O)CC2 (stereo partly drawn) [Example 872, (1r,2′S,4S)-4-(3-chloroanilino)-2′-[(2R)-2-methyl-3-{[(5R)-5-methyl-5,6,7,8-tetrahydroquinolin-4-yl]oxy}propyl]-6′-{[(oxolan-2-yl)oxy]methyl}-2′,3′-dihydrospiro[cyclohexane-1,1′-indene]-4-carboxylic acid] | 0.0505 | 52.9 | –
13 | Cc1c(Cl)cccc1N[C@]1(C(=O)O)CC[C@@]2(CC1)c1cc3c(cc1CN2C[C@@H](C)COc1ccnc2c1[C@H](C)CCC2)OCO3 [Example 50, (1r,4R)-4-(3-chloro-2-methylanilino)-6′-[(2R)-2-methyl-3-{[(5R)-5-methyl-5,6,7,8-tetrahydroquinolin-4-yl]oxy}propyl]-6′,7′-dihydro-2′H-spiro[cyclohexane-1,5′-[1,3]dioxolo[4,5-f]isoindole]-4-carboxylic acid] | – | 13500 | 72
14 | CCOc1cc2c(cc1C)CC(C[C@@H](C)COc1ccnc3c1[C@H](C)CCC3)[C@]21CC[C@](Nc2cccc(Cl)c2)(C(=O)O)CC1 (stereo partly drawn) [Example 824, (1r,4R)-4-(3-chloroanilino)-6′-ethoxy-5′-methyl-2′-[(2R)-2-methyl-3-{[(5R)-5-methyl-5,6,7,8-tetrahydroquinolin-4-yl]oxy}propyl]-2′,3′-dihydrospiro[cyclohexane-1,1′-indene]-4-carboxylic acid] | 0.329 | 421 | –
